# Measurements: publication PMC4549706, “Rational Design of Highly Potent and Slow-Binding Cytochrome bc1 Inhibitor as Fungicide by Computational Substitution Optimization” (Scientific Reports, 2015)
# Read-outs that look alike come from different tables or passages of the source.
# Columns and labels:
# [1] = target: T1, porcine succinate-cytochrome c reductase (SCR, the mixture of complex II and bc1) (Sus scrofa, UniProt P24964); conditions: previous data, cited from earlier work
# T1 construct: T h e S C R f r o m p o r c i n e h e a r t; from tissue; host or cells: porcine heart
# T1 sequence (P24964 whole entry, one chain of several): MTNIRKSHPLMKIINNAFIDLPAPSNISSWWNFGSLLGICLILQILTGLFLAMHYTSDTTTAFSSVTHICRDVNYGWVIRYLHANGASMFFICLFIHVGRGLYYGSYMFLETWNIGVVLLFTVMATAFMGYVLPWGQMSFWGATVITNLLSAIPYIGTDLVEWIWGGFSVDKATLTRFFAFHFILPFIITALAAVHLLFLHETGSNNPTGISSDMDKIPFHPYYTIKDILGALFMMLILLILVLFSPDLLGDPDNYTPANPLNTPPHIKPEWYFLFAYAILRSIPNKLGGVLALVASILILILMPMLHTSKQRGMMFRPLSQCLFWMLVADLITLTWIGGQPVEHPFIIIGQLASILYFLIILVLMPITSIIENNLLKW
# P. cubensis = assay: Field trial, cucumber naturally infected, downy mildew; type: in vivo, Pseudoperonospora cubensis; conditions: 7th day
# Method: (§1) To further study the potential of compound 18 against powdery mildew and downy mildew, field experiments were conducted during the growing season of summer squash and cucumber. The summer squash plants at a fruiting stage naturally infected by S. fuliginea were used. […] Almost no lesions were observed on the leaves of summer squash. […] Lesions on the leaves of control plants, however, expanded quickly, and intense fungal hyphae could be observed. The curative effect is approximately 64.85% for the AZ-treated (93.75 g.ai/ha) summer squash. In addition, field trials for the treatment of downy mildew of cucumber were also performed. Cucumber plants naturally infected by P. cubensis were used for the study. Fungi on the leaves of control plants expanded quickly and lesions could be observed.
# (§2) In the field trials, summer squash plants which is naturally infected by S. fuliginea and cucumber plants which is naturally infected by P. cubensis were used.
# (§3) The disease index and control effect of compound 18 were calculated via the following […]
# (§4) Disease index (%) = ∑(Ni × i)/(N × 9) × 100 […]
# (§5) Each treatment took up in four plots and was distributed randomly in each […]eld. The relative control effects were assessed after the 7th day of foliar application 18. […]
# S. fuliginea = assay: Field trial, summer squash naturally infected, powdery mildew; type: in vivo, Sphaerotheca fuliginea
# Method: as §1, §2, §3, §4, §5
# [2] = tested on: Sphaerotheca fuliginea (Schlecht.) Poll.; assay: In vivo fungus growth inhibitory rate at 200 mg/L, powdery mildew
# Excerpt: Based on the above in vitro study, compounds with nanomolar and subnanomolar Ki values were selected from the total 21 newly synthezised compounds for further studies. Pesticide likeness, defined as a complex balance of various physicochemical properties and structure features, can evaluate whether a molecule is similar to the known pesticides. After the filtration of pesticide likeness, seven compounds were kept to adhere to our previously defined rules for pesticide-likeness including molecular weight (MW) ≤ 435 Da, ClogP ≤ 6, number of H-bond acceptors (HBA) ≤ 6, number of H-bond donors (HBD) ≤ 2, number of rotatable bonds (ROB) ≤ 9, and number of aromatic bonds (ARB) ≤ 17 (Table 1)[24]. […] Therefore, compound 18 was recognized as lead compound for subsequent studies.
# [a] Compounds are named as “series number-site number plus substitution group number” a: -F, b: -Cl, c:
# -Br, d: -NO2, e: -CH3, f: -CF3, g: -OCH3, h: -OH, i: -NH2, j: -COOH.
# [b] Substitution number and group.
# [c] CH is “series 1” and N is “series 2”. […]
# Table S2 Fungus growth inhibitory rate of target compounds (200 mg/L).
# Comp. No. R X Sphaerotheca fuliginea Pseudoperonospora cubensis
SMILES,Ki ([1]; inhibition of SCR activity) [nM],inhibition type with respect to cytochrome c [1],"curative effect, downy mildew (P. cubensis) (P. cubensis; 75 g.ai/ha) [%]","curative effect, powdery mildew (S. fuliginea) (S. fuliginea; 37.5 g.ai/ha, 7th day)","curative effect, powdery mildew (S. fuliginea) (S. fuliginea; 75 g.ai/ha, 7th day after foliar application) [%]","Fungus growth inhibitory rate, Sphaerotheca fuliginea [2]","Fungus growth inhibitory rate, Sphaerotheca fuliginea ([2]; listed as Comp. 18) [%]","curative effect, downy mildew (P. cubensis) (P. cubensis; 60 g.ai/ha)"
"CO/C=C(/C(=O)OC)c1ccccc1Oc1cc(Oc2ccccc2C#N)ncn1 [AZ, Azoxystrobin, reference compound]",298,non-competitive,59.59,–,–,–,–,–
COC=C(C(=O)OC)c1ccccc1CSc1nc2cc(OC)ccc2s1 [Compound 18],–,–,–,approximately 70.92%,74.60,completely inhibited,100,approximately 82.59%
